Each block holds one compound with its values, some of them ahead of it.
Experiments:
[1] = Population pharmacokinetic analysis; format: in vivo, HIV-infected Thai patients
[2] = cited from earlier work
[3] = indinavir model, bootstrap median
[4] = indinavir model, final model estimate

Residual variability σ (Proportional) ([1]; both, human, in vivo): 0.36
interindividual variability of CL/F ([1]; both, human, in vivo): 48%
interindividual variability of Vd/F ([1]; both, human, in vivo): 45%
θIDVDOSE-600mg (factor on ritonavir CL/F) ([1]; both, human, in vivo): 0.78
θSEX-Female (factor on ritonavir CL/F) ([1]; both, human, in vivo): 0.77
CL/F ([1]; human, in vivo): 10.1 L/h
CL/F ([1]; human, in vivo, 100 mg): 10.1 L/h
SMILES: CC(C)c1nc(CN(C)C(=O)N[C@H](C(=O)N[C@@H](Cc2ccccc2)C[C@H](O)[C@H](Cc2ccccc2)NC(=O)OCc2cncs2)C(C)C)cs1 [RTV, ritonavir]

Inter-individual variability IIV (CL/F) [1, 3]: 0.29
Inter-individual variability IIV (Ktr) [1, 3]: 0.352
Ktr (= Ka within a transit model) [1, 3]: 2.37 h⁻¹
Residual variability, proportional σ (IDV 400 mg) [1, 3]: 0.42
Residual variability, proportional σ (IDV 600 mg) [1, 3]: 0.29
Inter-individual variability IIV (CL/F) [1, 4]: 0.30
Inter-individual variability IIV (Ktr) [1, 4]: 0.38
Ktr (= Ka within a transit model) [1, 4]: 2.32 h⁻¹
Residual variability, proportional σ (IDV 400 mg) [1, 4]: 0.42
Residual variability, proportional σ (IDV 600 mg) [1, 4]: 0.29
Inter-individual variability IIV (Vd/F) ([1]; indinavir model, final model, ω^2(V/F) = θpV/F × ω^2(CL/F)): 0.23
interindividual variability of CL/F ([1]; indinavir, final population estimate): 30%
SMILES: CC(C)(C)NC(=O)[C@@H]1CN(Cc2cccnc2)CCN1C[C@@H](O)C[C@@H](Cc1ccccc1)C(=O)N[C@H]1c2ccccc2C[C@H]1O [IDV, Indinavir]
indinavir AUC associated with an increased risk of developing nephrotoxicity ([2]; Thai patients receiving IDV/r 800/100 mg twice daily): > 60000 µg·h/mL
indinavir CL/F higher in male patients compared to female patients ([2]; after adjusting for concomitant ritonavir use): 30%
indinavir bioavailability higher in female patients than in males ([2]; analysis including only nine women): 48%

— paper PMC3058116 (Therapeutic drug monitoring, 2011)
